# Laboratory results reported in patent US20080004266A1, “Method for treating proliferative disorders associated with protooncogene products” (priority 2006, published 2008).
# Several values for one entry are separate records, joined by “and”; a condition that tells them apart may be missing. Equal entries are not always repeated.
# Legend:
# [1] = tested on: NCI-H1975 cells (EGFR T790M and L858R); assay: Cell survival in NCI-H1975 cells (Cell Counting Kit-8); assay type: cell-based, human; settings: Homo sapiens, 72 hours
# Description: Human lung cancer cell line NCI-H1975 which harbors both the T790M and the L858R mutations in EGFR was obtained from American Type Culture Collection. NCI-H1975 (10,000 cells/well) were cultured in 96-well plates and maintained at 37° C. for several hours. The cells were incubated at 37° C. for 72 hours with various concentrations of compound 226 of the invention, 17AAG or DMAG. 17AAG and DMAG are Hsp90 inhibitors that are currently in clinical trials and are used here as positive controls for Hsp90 inhibition. Cell survival was measured with Cell Counting Kit-8 (Dojindo Laboratories, Cat # CK04).
# [2] = tested on: human chronic myelogenous leukemia tumor cell line K-562; assay: K-562 (Bcr-Abl) SCID mouse xenograft model; assay type: in vivo, human (xenograft in SCID mouse); settings: 35 mg/kg i.v. 5 times per week, day 17
# Description: Growth of this tumor cell line is dependent upon the expression of the Bcr-Abl fusion protein (C. Gambacarti-Passerini et al., Blood Cells Mol. Dis. 23:380-394, 1997). The cells were cultured in growth media prepared with Iscove's Modified Dulbecco's Media, 10% fetal bovine serum (FBS), 1% 100× Penicillin-Streptomycin, 1% 100× sodium pyruvate and 1% 100×MEM non-essential amino acids. FBS was obtained from ATCC and all other reagents were obtained from Invitrogen Corp. (Carlsbad, Calif., USA). Cells that had been cryopreserved in liquid nitrogen were rapidly thawed at 37° C. and transferred to a tissue culture flask containing growth media and then incubated at 37° C. in a 5% CO2 incubator. […]
# Seven to eight week old, female CB17/Icr-Prkdc^scid/Crl (SCID) mice were obtained from Charles River Laboratories (Wilmington, Mass., USA). […] To implant K-562 tumor cells into SCID mice, cell cultures were centrifuged to pellet the cells, the supernatant was aspirated, the cell pellet was resuspended in 10 ml of growth media and the cell number determined using a hemocytometer. […]
# Tumors were then permitted to develop in vivo until the majority reached 100-200 mm^3 in tumor volume, which typically required 1-2 weeks following implantation. […] Tumor volumes (V) were calculated by caliper measurement of the width (W), length (L) and thickness (T) of tumors using the following formula: V=0.5236×(L×W×T). […]
# phosphorylated Bcr-Abl = assay: Degradation of Bcr-Abl in KU812 cells (Western blot); assay type: cell-based; settings: 18 hours
# Description: KU812 chronic myeloid leukemia cells (ATCC) (2×10^6 cells), which harbor the Philadelphia chromosome that produces Bcr-Abl tyrosine kinase, were treated (0.1 μM and 1.0 μM) with either Compound 226, 17-AAG or 17-DMAG. After 18 hours, the cells were lysed with 1× lysis buffer, and a western blot was perform using anti-BCR-ABL antibody to detect phosphorylated Bcr-Abl.
# NPM-ALK = assay: Degradation of NPM-ALK in Karpas-299 cells (Western blot); assay type: cell-based, human; settings: 18 hours
# Description: Anaplastic large-cell lymphoma cells, Karpas-299 cells (the German resource center for biological material) (2×10^6 cells), which harbor the fusion protein NPM-ALK, were treated (0.05 μM, 0.1 μM and 0.5 μM) with either Compound 226 or 17-AAG. After 18 hours and the cells were lysed with 1× lysis buffer and a western blot was perform using an anti-ALK antibody to detect and phosphorylated NPM-ALK and total NPM-ALK.
# K562 cells (Bcr-Abl) = assay: Cell survival in K562 cells (Cell Counting Kit-8); assay type: cell-based, human; settings: Homo sapiens, 72 hours
# Description: Growth of this tumor cell line is dependent upon the expression of the Bcr-Abl fusion protein (C. Gambacarti-Passerini et al., Blood Cells Mol. Dis. 23:380-394, 1997). K562 cells (20,000 cells/well) were cultured in 96-well plates and maintained at 37° C. for several hours. […] 17AAG, DMAG, and Radicical are Hsp90 inhibitors that are currently in clinical trials and are used here as positive controls for Hsp90 inhibition. […] Cell survival was measured with Cell Counting Kit-8 (Dojindo Laboratories, Cat # CK04).
smiles,measurement,setting,value
"CC(C)c1cc(-c2nnc(O)n2-c2ccc3c(ccn3C)c2)c(O)cc1O [Compound 226, 3-(2,4-di-hydroxy-5-isopropyl-phenyl)-4-(1-methyl-indol-5-yl)-5-hydroxy-[1,2,4] triazole]",IC50,[1],16 nM
same,average bodyweight loss relative to the start of the study,[2],−12.4% (+/−1.4 SEM)
same,% T/C value,"[2]; SCID mice, 6 doses, 35 mg/kg",25% and 24.7%
same,degradation of phosphorylated Bcr-Abl,phosphorylated Bcr-Abl; 0.1 μM,complete degradation
same,degradation of phosphorylated Bcr-Abl,phosphorylated Bcr-Abl; 1.0 μM,complete degradation
same,degradation of phosphorylated and total NPM-ALK,NPM-ALK; 0.05 μM and 0.1 μM,partial degradation
same,degradation of phosphorylated NPM-ALK,NPM-ALK; 0.5 μM,total degradation
same,IC50,K562 cells (Bcr-Abl),14 nM
